US8975265B2, “Substituted imidazo[1,2-a]pyrimidines and —pyridines” (Bayer Intellectual Property GmbH, priority 2010, dated 2015)
pIC50: −log10 of the molar value. Where two headings read alike, the source gives them in different places.

Assays:
[1] = system: p-AKT1/2/3-S473 in KPL4 breast tumour cell line; assay: Cellular p-AKT1/2/3-S473 assay; assay type: cell-based; details: read-out: pAKT-S743 median IC50
Experimental: The molecular mechanism of action was investigated in a set of experiments to assess the inhibition of the PI3K-AKT-mTOR pathway in responsive cell lines such as KPL4 breast tumour cell line (PIK3CAH1047R, HER20/E and hormone independent). The phospho-substrates of PI3K-AKT-mTOR axis were used as the read-outs to reflect pathway inhibition. Cells were seeded at 60-80% confluency per well in 96-well cell culture plates. After overnight incubation at 37° C. 5% CO2, cells were treated with compounds and vehicle at 37° C. for 2 hours. […] All measurements where at least done in duplicates and confirmed by independent repetition.
Alternatively pAKT-S473 was measured using the “Akt Duplex” of the MULTI-SPOT® Assay System (Fa. Meso Scale Discovery, Cat# N41100B-1) following manufacturers instructions. Each assay used 20 μg of protein extract and measured total AKT and p-AKT content simultaneously in one well. All measurements where at least done in duplicates and confirmed by independent repetition. Values for P-AKT are expressed as percentage of P-AKT level compared to total-AKT content of the extracts.

[2] = molecular target: His-tagged human recombinant kinase full-length Akt1 (Homo sapiens (Human), UniProt P31749); assay: Akt1 kinase assay (TR-FRET); assay type: biochemical; details: 10 μM ATP; read-out: Akt1, median IC50
His-tagged human recombinant kinase full-length Akt1, sequence (P31749 whole entry): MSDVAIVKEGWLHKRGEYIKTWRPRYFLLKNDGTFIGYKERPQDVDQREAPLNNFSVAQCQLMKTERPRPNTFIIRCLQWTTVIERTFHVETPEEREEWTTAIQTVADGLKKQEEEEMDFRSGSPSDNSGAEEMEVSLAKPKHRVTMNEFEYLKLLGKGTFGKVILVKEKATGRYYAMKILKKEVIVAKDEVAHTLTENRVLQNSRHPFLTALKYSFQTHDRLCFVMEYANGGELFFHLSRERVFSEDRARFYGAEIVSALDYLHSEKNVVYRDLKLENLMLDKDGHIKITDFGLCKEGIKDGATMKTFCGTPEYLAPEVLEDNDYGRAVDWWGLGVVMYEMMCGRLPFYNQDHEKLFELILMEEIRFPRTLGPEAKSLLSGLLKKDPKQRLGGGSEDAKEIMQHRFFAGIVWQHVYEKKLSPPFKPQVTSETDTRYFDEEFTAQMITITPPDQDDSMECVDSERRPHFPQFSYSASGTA
Experimental: Biological Assay 1.0: Akt1 Kinase Assay
Akt1 inhibitory activity of compounds of the present invention was quantified employing the Akt1 TR-FRET assay as described in the following paragraphs.
As substrate for the kinase reaction the biotinylated peptide biotin-Ahx-[…] (C-terminus in amide form) was used which can be purchased e.g. from the company Biosynthan GmbH (Berlin-Buch, Germany).
For the assay 50 nl of a 100 fold concentrated solution of the test compound in DMSO was pipetted into a black low volume 384 well microtiter plate (Greiner Bio-One, Frickenhausen, Germany), 2 μl of a solution of Akt1 in assay buffer [50 mM TRIS/HCl pH 7.5, 5 mM MgCl2, 1 mM dithiothreitol, 0.02% (v/v) Triton X-100 (Sigma)] were added and the mixture was incubated for 15 min at 22° C. to allow prebinding of the test compounds to the enzyme before the start of the kinase reaction. […] The concentration of Akt1 in the assay was adjusted depending of the activity of the enzyme lot and was chosen appropriate to have the assay in the linear range, typical enzyme concentrations were in the range of about 0.05 ng/μl (final conc. in the 5 μl assay volume).
The resulting mixture was incubated 1 h at 22° C. to allow the binding of the biotinylated phosphorylated peptide to the streptavidine-XL665 and the antibodies. Subsequently the amount of phosphorylated substrate was evaluated by measurement of the resonance energy transfer from the anti-mouse-IgG-Eu-Chelate to the streptavidine-XL665.

[3] = system: KPL-4 breast cancer cell line; assay: Tumor cell proliferation assay (CellTiter-Glo, 72 h), KPL-4; assay type: cell-based; details: KPL4, 72h drug exposure
Experimental: Biological Assay 4.0: Tumor Cell Proliferation Assays
Compounds were tested in a cell-based assay that measures the capacity of the compounds to inhibit tumour cell proliferation following a 72h drug exposure. Cell viability is determined using CellTiter-Glow® (CTG, Promega, cat# G7571/2/3). The CellTiter-Glo® Luminescent Cell Viability Assay is a homogeneous method to determine the number of viable cells in culture. Detection is based on using the luciferase reaction to measure the amount of ATP from viable cells. The amount of ATP in cells correlates with cell viability. Within minutes after a loss of membrane integrity, cells lose the ability to synthesize ATP, and endogenous ATPases destroy any remaining ATP; thus the levels of ATP fall precipitously.
For each cell line assayed, cells were plated onto a separate plate for determination of […] at t=0 hour and t=72 hour time points. Following overnight incubation at 37° C., chemiluminescence values for the t=0 samples were determined after adding 10 μl medium and 100 μl CTG solution according to manufacture protocol. Plates for the t=72 hour time points were treated with compounds diluted into growth medium at ten times final concentration added in 10 μL to the cell culture plate. Cells were then incubated for 72 hours at 37° C. Chemiluminescence values for the t=72 hour samples were determined. […] Experiments were controlled using a reference compound as standard.

[4] = KPL4 breast tumour cell line, 2 hours treatment

Row | Compound | pIC50 [1, 4] | pIC50 [2] | pIC50 [3] | pIC50 ([1]; KPL4, 2 h)
1 | N[C@]1(c2ccc(-c3nc4nc(O)ccn4c3-c3ccccc3)cc2)C[C@H](O)C1 [Example 3-0, 2-[4-(cis-1-amino-3-hydroxy-cyclobutyl)-phenyl]-3-phenyl-imidazo[1,2-a]pyrimidin-7-ol] | – | 6.42 | – | –
2 | COc1cccn2c(-c3ccccc3)c(-c3ccc(C4(N)CCC4)cc3)nc12 [Example 2-12] | 6.80 | – | 5.89 | –
3 | CN(C)C(=O)COc1ccn2c(-c3ccccc3)c(-c3ccc(C4(N)CCC4)cc3)nc2c1 [Example 9-2] | 7.60 | 6.59 | 6.05 | –
4 | NC1(c2ccc(-c3nc4c(F)cccn4c3-c3ccccc3)cc2)CCC1 [Example 2-44] | 7.32 | – | 5.82 | –
5 | NC1(c2ccc(-c3nc4ccc(Br)cn4c3-c3ccccc3)cc2)CCC1 [Example 2-16] | 6.32 | – | 5.72 | –
6 | COC(=O)COc1ccc2nc(-c3ccc(C4(N)CCC4)cc3)c(-c3ccccc3)n2c1 [Example 9-4] | 5.19 | 6.75 | 5.51 | –
7 | COc1cc(COc2ccn3c(-c4ccccc4)c(-c4ccc(C5(N)CCC5)cc4)nc3n2)ccn1 [Example 2-28] | 6.94 | 6.75 | 5.74 | –
8 | NC1(c2ccc(-c3nc4ccc(Br)cn4c3-c3ccccc3)cc2)CCC1 [Example 2-139] | – | 7.36 | 5.70 | 6.74
9 | NC1(c2ccc(-c3nc4ccc(-c5ccncc5)cn4c3-c3ccccc3)cc2)CCC1 [Example 2-136] | 6.82 | 6.27 | 5.72 | –
10 | NC1(c2ccc(-c3nc4ccc(C(=O)NCCO)cn4c3-c3ccccc3)cc2)CCC1 [Example 2-55] | 6.51 | 5.94 | 5.26 | –
11 | COC(=O)c1ccc2nc(-c3ccc(C4(N)CCC4)cc3)c(-c3ccccc3)n2c1 [Example 2-36] | 5.99 | – | 5.00 | –
12 | NC1(c2ccc(-c3nc4ccc(C(=O)NCC5CC5)cn4c3-c3ccccc3)cc2)CCC1 [Example 2-58] | 6.71 | 6.47 | 5.72 | –
13 | NC1(c2ccc(-c3nc4cc(-c5ccncc5)ccn4c3-c3ccccc3)cc2)CCC1 [Example 2-109, 1-[4-(3-phenyl-7-pyridin-4-yl-imidazo[1,2-a]pyridin-2-yl)-phenyl]-cyclobutylamine] | 7.55 | 6.74 | 5.82 | –
14 | NC1(c2ccc(-c3nc4nc(Oc5ccccc5)ccn4c3-c3ccccc3)cc2)CCC1 [Example 2-32] | – | – | 5.74 | –
15 | NC1(c2ccc(-c3nc4nc(O)ccn4c3-c3ccccc3)cc2)CCC1 [Example 2-1] | – | 6.26 | 5.27 | –
16 | N#Cc1cccn2c(-c3ccccc3)c(-c3ccc(C4(N)CCC4)cc3)nc12 [Example 2-3] | 7.49 | – | 5.62 | –
17 | NC1(c2ccc(-c3nc4nc(C5CC5)ccn4c3-c3ccccc3)cc2)CCC1 [Example 1-2] | – | – | 5.74 | –
18 | NC1(c2ccc(-c3nc4cc(CO)ccn4c3-c3ccccc3)cc2)CCC1 [Example 2-14] | 6.29 | – | 5.52 | –
19 | COc1cnc2nc(-c3ccc(C4(N)CCC4)cc3)c(-c3ccccc3)n2c1 [Example 1-7] | 7.42 | – | 6.00 | –
20 | NC1(c2ccc(-c3nc4c(Br)cccn4c3-c3ccccc3)cc2)CCC1 [Example 2-39] | 7.49 | – | 5.80 | –

Further compounds by rising pIC50 [3], results first:

Row | pIC50 [1, 4] | pIC50 [2] | pIC50 [3] | Compound | pIC50 ([1]; KPL4, 2 h)
21 | 5.32 | 7.04 | 5.00 | NC1(c2ccc(-c3nc4ccc(C(=O)O)cn4c3-c3ccccc3)cc2)CCC1 [Example 2-51] | –
22 | 5.42 | 5.97 | 5.00 | NC(=O)C1(COc2ccn3c(-c4ccccc4)c(-c4ccc(C5(N)CCC5)cc4)nc3n2)CC1 [Example 2-65] | –
23 | 6.11 | 5.72 | 5.03 | CN(C)C(=O)c1ccc2nc(-c3ccc(C4(N)CCC4)cc3)c(-c3ccccc3)n2c1 [Example 2-61] | –
24 | 6.52 | – | 5.06 | C=Cc1cccn2c(-c3ccccc3)c(-c3ccc(C4(N)CCC4)cc3)nc12 [Example 2-49] | –
25 | 5.48 | – | 5.35 | COCCNCc1ccc2nc(-c3ccc(C4(N)CCC4)cc3)c(-c3ccccc3)n2c1 [Example 2-24] | –
26 | 6.79 | – | 5.49 | NC1(c2ccc(-c3nc4c(CO)cccn4c3-c3ccccc3)cc2)CCC1 [Example 2-15] | –
27 | – | – | 5.64 | CCOc1cnc2nc(-c3ccc(C4(N)CCC4)cc3)c(-c3ccccc3)n2c1 [Example 1-8] | –
28 | 7.00 | – | 5.64 | NC(=O)/C=C/c1ccn2c(-c3ccccc3)c(-c3ccc(C4(N)CCC4)cc3)nc2c1 [Example 2-124] | –
29 | 6.33 | – | 5.64 | CC(C)Oc1ccn2c(-c3ccccc3)c(-c3ccc(C4(N)CCC4)cc3)nc2n1 [Example 2-30] | –
30 | 6.12 | – | 5.66 | CC(O)c1ccc2nc(-c3ccc(C4(N)CCC4)cc3)c(-c3ccccc3)n2c1 (centres unmarked) [Example 2-13] | –
31 | 6.59 | 6.13 | 5.70 | NC1(c2ccc(-c3nc4ccc(C5CC5)cn4c3-c3ccccc3)cc2)CCC1 [Example 2-63] | –
32 | – | – | 5.70 | Cc1ccn2c(-c3ccccc3)c(-c3ccc(C4(N)CCC4)cc3)nc2n1 [Example 1-1] | –
33 | 6.37 | – | 5.72 | COCc1ccc2nc(-c3ccc(C4(N)CCC4)cc3)c(-c3ccccc3)n2c1 [Example 2-10] | –
34 | – | – | 5.72 | NC1(c2ccc(-c3nc4nc(OC5CCCCC5)ccn4c3-c3ccccc3)cc2)CCC1 [Example 2-31] | –
35 | 6.63 | – | 5.72 | NC1(c2ccc(-c3nc4cc(Br)ccn4c3-c3ccccc3)cc2)CCC1 [Example 2-40] | –
36 | 7.23 | – | 5.74 | NC1(c2ccc(-c3nc4ccc(F)cn4c3-c3ccccc3)cc2)CCC1 [Example 2-46] | –
37 | 7.55 | – | 5.74 | NC1(c2ccc(-c3nc4c(Cl)cccn4c3-c3ccccc3)cc2)CCC1 [Example 2-45] | –
38 | – | 6.72 | 5.74 | CCOc1ccn2c(-c3ccccc3)c(-c3ccc(C4(N)CCC4)cc3)nc2n1 [Example 2-29] | –
39 | 6.85 | – | 5.74 | NC1(c2ccc(-c3nc4cc(-c5ccccn5)ccn4c3-c3ccccc3)cc2)CCC1 [Example 2-111] | –
40 | 7.03 | 6.42 | 5.77 | CCNC(=O)c1ccc2nc(-c3ccc(C4(N)CCC4)cc3)c(-c3ccccc3)n2c1 [Example 2-62] | –
41 | 7.40 | – | 5.77 | NC1(c2ccc(-c3nc4ccc(-c5cn[nH]c5)cn4c3-c3ccccc3)cc2)CCC1 [Example 2-132] | –
42 | 6.60 | – | 5.77 | CCCOc1ccn2c(-c3ccccc3)c(-c3ccc(C4(N)CCC4)cc3)nc2n1 [Example 2-2] | –
43 | 7.03 | – | 5.80 | CCOc1cccn2c(-c3ccccc3)c(-c3ccc(C4(N)CCC4)cc3)nc12 [Example 2-19] | –
44 | – | 6.46 | 5.82 | NC1(c2ccc(-c3nc4ncccn4c3-c3ccccc3)cc2)CCC1 [Example 1-0, 1-[4-(3-phenyl-imidazo[1,2-a]pyrimidin-2-yl)-phenyl]-cyclobutylamine] | –
45 | – | – | 6.00 | Cc1cnc2nc(-c3ccc(C4(N)CCC4)cc3)c(-c3ccccc3)n2c1 [Example 1-6] | –
46 | 7.21 | – | 6.05 | CNC(=O)c1ccc2nc(-c3ccc(C4(N)CCC4)cc3)c(-c3ccccc3)n2c1 [Example 2-9] | –
